Measurements: the supplement of paper PMC10307832

Experiments:
Test in all cases: relative viability (nuclei count vs DMSO), 5 days (fraction); higher = more cells survive
[1] = compound: CC1CC(=O)N(C2=CN=C(N=C2N1C3CCCC3)NC4=C(C=C(C=C4)C(=O)NC5CCN(CC5)C)OC)C [NPK76-II-72-1] + CC(=O)c1c(C)c2cnc(Nc3ccc(N4CCNCC4)cn3)nc2n(C2CCCC2)c1=O [Palbociclib] (partner 0.5 µM)
Procedure, shortened: (§1)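 Each reported value is a median over duplicate plates. It expresses relative viability: treated-well nuclei count divided by vehicle-well nuclei count. Lung cancer cell lines in 1536-well plates were dosed by pin tool a day after seeding, alone with one drug or with a fixed anchor-drug dose plus five library-drug doses (not always all listed) in √10 steps, and nuclei were counted after 5 days.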

[2] = compound: CC[C@@H]1C(=O)N(C)c2cnc(Nc3ccc(C(=O)NC4CCN(C)CC4)cc3OC)nc2N1C1CCCC1 [BI-2536] + CC(=O)c1c(C)c2cnc(Nc3ccc(N4CCNCC4)cn3)nc2n(C2CCCC2)c1=O [Palbociclib] (partner 0.5 µM)
Procedure, shortened: as §1

[3] = compound: CC1CC(=O)N(C2=CN=C(N=C2N1C3CCCC3)NC4=C(C=C(C=C4)C(=O)NC5CCN(CC5)C)OC)C [NPK76-II-72-1] + CCNC(=O)c1noc(-c2cc(C(C)C)c(O)cc2O)c1-c1ccc(CN2CCOCC2)cc1 [Luminespib] (partner 0.01 µM)
Procedure, shortened: as §1

[4] = compound: CC1CC(=O)N(C2=CN=C(N=C2N1C3CCCC3)NC4=C(C=C(C=C4)C(=O)NC5CCN(CC5)C)OC)C [NPK76-II-72-1] + NC(=O)Nc1cc(-c2cccc(F)c2)sc1C(=O)N[C@H]1CCCNC1 [AZD7762] (partner 0.2 µM)
Procedure, shortened: as §1

Cell Line | relative viability ([1]; first compound 0.01 µM) | relative viability ([1]; first compound 0.03162 µM) | relative viability ([1]; first compound 0.1 µM) | relative viability ([1]; first compound 0.3162 µM) | relative viability ([1]; first compound 1 µM) | relative viability ([2]; first compound 0.01 µM) | relative viability ([2]; first compound 0.03162 µM) | relative viability ([2]; first compound 0.1 µM) | relative viability ([2]; first compound 0.3162 µM) | relative viability ([2]; first compound 1 µM) | relative viability ([3]; first compound 0.01 µM) | relative viability ([3]; first compound 0.03162 µM) | relative viability ([3]; first compound 0.1 µM) | relative viability ([3]; first compound 0.3162 µM) | relative viability ([3]; first compound 1 µM) | relative viability ([4]; first compound 0.01 µM) | relative viability ([4]; first compound 0.03162 µM) | relative viability ([4]; first compound 0.1 µM) | relative viability ([4]; first compound 0.3162 µM) | relative viability ([4]; first compound 1 µM)
COR-L23 | 0.264 | 0.304 | 0.314 | 0.29 | 0.342 | 0.298 | 0.242 | 0.139 | 0.117 | 0.127 | 0.655 | 0.789 | 0.746 | 0.711 | 0.761 |  |  |  |  | 
ABC-1 | 0.522 | 0.646 | 0.791 | 0.511 | 0.672 | 0.561 | 0.629 | 0.374 | 0.358 | 0.423 |  | 0.389 |  | 0.543 | 0.522 | 0.73 | 0.726 | 0.719 | 0.536 | 0.72
SW 900 | 0.53 | 0.632 | 0.464 | 0.441 | 0.584 | 0.549 | 0.487 | 0.471 | 0.313 | 0.219 | 0.183 | 0.19 | 0.171 | 0.169 | 0.169 | 0.535 | 0.645 | 0.771 | 0.569 | 0.761
NCI-H838 | 0.209 | 0.2 | 0.217 | 0.228 | 0.228 | 0.214 | 0.202 | 0.199 | 0.0979 | 0.0994 | 0.288 | 0.344 | 0.299 | 0.273 | 0.274 | 0.826 | 0.961 | 0.947 | 0.912 | 0.976
NCI-H1648 | 0.23 | 0.269 | 0.24 | 0.266 | 0.279 | 0.288 | 0.131 | 0.251 | 0.229 | 0.29 |  |  |  |  |  | 0.639 | 0.563 | 0.57 | 0.66 | 0.533
A-427 | 0.494 | 0.537 | 0.529 | 0.532 | 0.565 | 0.519 | 0.498 | 0.453 | 0.219 | 0.203 | 0.827 | 1.06 | 0.94 | 0.905 | 1.02 | 0.682 | 0.673 | 0.945 | 0.796 | 0.814
NCI-H1792 | 0.698 |  | 0.672 | 0.662 | 0.68 | 0.72 | 0.706 | 0.76 | 0.349 | 0.215 | 0.404 | 0.504 | 0.469 | 0.5 | 0.556 |  | 0.702 | 0.848 | 0.686 | 0.732
LCLC-97TM1 | 0.196 | 0.215 | 0.209 | 0.211 | 0.203 | 0.225 | 0.203 | 0.144 | 0.107 | 0.0769 | 0.673 | 0.768 | 0.532 | 0.748 | 0.748 | 0.298 | 0.404 | 0.27 |  | 0.298
NCI-H1703 |  |  |  |  |  |  |  |  |  |  |  |  |  |  |  | 0.144 | 0.115 | 0.174 |  | 0.0937
